Experimental data reported in patent publication US11389415B2, “Methods of regulating cannabinoid receptor activity-related disorders and diseases” (The United States of America as represented by the …, priority 2012, dated 2022).

Legend:
HepG2 and PANC-1 cells = assay: Cell morphology and EGFR expression in HepG2 and PANC-1 cells; assay type: cell-based, human
Description: FIGS. 26A-26C show MNF interferes with inducible changes in cell morphology and expression of EGFR. […] White arrows show individual cells with filopodia. FIG. 26C, Cell lysates were prepared from similar studies and immunoblotted for EGFR. The membranes were reprobed for Hsp90, which served as a loading control.
(§1) Western blot analysis. For detection of intracellular signaling proteins, cells were lysed in radioimmunoprecipitation buffer containing EGTA and EDTA (Boston BioProducts, Ashland, Mass.). The lysis buffer contained a protease inhibitor cocktail (Sigma-Aldrich) and phosphatase inhibitor cocktail (Calbiochem, San Diego, Calif.). Equivalent amount of proteins (14 and 54 μg/well for PANC-1 and HepG2 cells, respectively) were separated on 4 to 12% precast gels (Invitrogen, Carlsbad, Calif.) using SDS-polyacrylamide gel electrophoresis under reducing conditions and then electrophoretically transferred onto polyvinylidene fluoride membrane (Invitrogen). Western blots were performed according to standard methods, which involved blocking in 5% non-fat milk and incubated with the antibody of interest, followed by incubation with a secondary antibody conjugated with the enzyme horseradish perodixase. The detection of immunoreactive bands was performed by chemiluminescence using the ECL Plus Western Blotting Detection System (GE Healthcare, Piscataway, N.J.). The quantification of bands was done by volume densitometry by using ImageJ software. The rabbit polyclonal antibodies against EGFR were obtained from Cell Signaling Technology, Inc. (Beverly, Mass.) and the monoclonal anti-Hsp90 was purchased from Santa Cruz Biotechnology, Inc. (Santa Cruz, Calif.).

CYP3A4 = target: T1, CYP3A4 (Homo sapiens, UniProt P08684); assay: CYP inhibition in human liver microsomes, CYP3A4; assay type: in vitro ADME; conditions: 10 μM, 20 minutes, 37° C.
T1 construct: from tissue; host or cells: human liver microsomes
T1 sequence (P08684 whole entry): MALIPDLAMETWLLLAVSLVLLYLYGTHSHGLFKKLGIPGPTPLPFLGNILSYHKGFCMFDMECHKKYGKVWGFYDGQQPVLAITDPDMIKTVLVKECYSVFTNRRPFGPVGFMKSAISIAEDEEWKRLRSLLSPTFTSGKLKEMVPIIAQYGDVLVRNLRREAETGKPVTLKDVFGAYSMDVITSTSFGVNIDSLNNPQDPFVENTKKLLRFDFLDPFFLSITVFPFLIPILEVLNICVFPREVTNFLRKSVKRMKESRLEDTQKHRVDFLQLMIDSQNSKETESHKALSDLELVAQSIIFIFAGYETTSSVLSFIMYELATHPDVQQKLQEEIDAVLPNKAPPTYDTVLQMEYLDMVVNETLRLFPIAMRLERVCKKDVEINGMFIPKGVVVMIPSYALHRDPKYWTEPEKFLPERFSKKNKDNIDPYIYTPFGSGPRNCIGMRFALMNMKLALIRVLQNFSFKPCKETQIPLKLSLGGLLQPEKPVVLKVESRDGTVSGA
Description: Incubations containing known CYP inhibitors were also included as positive controls. Formation of the model substrate metabolites was measured by LC-MS/MS and compared to control incubations (incubation of substrates with microsomes and cofactors, no test articles or inhibitors). CYP activity in presence of test compound (MNF) that was less than 70% of control was considered significant. MNF (10 μM) inhibited CYP2D6 and CYP3A4 to less than 70% of the control. Further, the primary metabolite was determined to be O-demethylated-MNF. These studies indicate that MNF alters the metabolism of other drugs or endogenous compounds that are substrates for CYP2D6 and/or CYP3A4 isoforms, when present in the plasma or liver at 10 μM or higher.

GPR55 = GPR55 (Homo sapiens, UniProt Q9Y2T6); assay: Cellular uptake of TocriFluor T1117 in PANC-1 cells; conditions: MNF 1 μM
GPR55, sequence (Q9Y2T6 whole entry): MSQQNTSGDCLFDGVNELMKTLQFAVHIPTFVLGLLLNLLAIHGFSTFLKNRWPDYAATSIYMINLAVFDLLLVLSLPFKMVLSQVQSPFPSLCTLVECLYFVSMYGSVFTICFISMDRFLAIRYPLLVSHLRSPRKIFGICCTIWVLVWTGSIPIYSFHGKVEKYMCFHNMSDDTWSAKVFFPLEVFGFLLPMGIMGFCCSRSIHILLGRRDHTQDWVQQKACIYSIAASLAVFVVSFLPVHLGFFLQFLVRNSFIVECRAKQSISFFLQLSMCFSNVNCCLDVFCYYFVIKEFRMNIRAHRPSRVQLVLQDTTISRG
Description: Cellular uptake of TocriFluor T1117, a fluorescently labeled GPR55 agonist Cells were grown in 35-mm glass bottom culture dishes (MatTek Corp., Ashland, Mass., USA) for 48 hours until reaching ˜70% confluence. […] Cells were imaged with a Zeiss LSM 710 confocal microscope equipped with a temperature-controlled and humidified CO2 chamber and a definite focus system. […] The time-series function of the Zeiss Zen software was used to collect images with a 40×1.3 NA objective every 30 s for up to one hour, with all confocal settings remaining the same throughout the studies. Still images, movies and fluorescent intensity quantitation were obtained from these series using the Zeiss Zen software. Studies were repeated at least two to three times.

[1] = In vitro metabolic stability, human liver microsomes; assay type: in vitro ADME; conditions: 37° C.
Description: (§2) FIG. 10 presents the data from the in vitro metabolic stability study in which MNF was incubated (in duplicate) with active and heat-inactivated human (HLM) and rat (RLM) liver microsomes and cofactors at 37° C. Aliquots were removed at 0, 15, 30 and 60 minutes and the amount of test compound (MNF) remaining at each time point was determined by LC-MS/MS.

ERK1/2 = ERK1/2 phosphorylation (GPR55 downstream signaling) in HepG2 cells; assay type: cell-based, human
Description: as §1
Effect of MNF on O-1602-mediated increase in cell signaling. Serum-starved cells were pretreated in the absence or presence of 1 μM MNF for 10 minutes followed by a 10 minute incubation with 0, 2.5 and 10 μM O-1602 or 10% FBS, after which the levels of total ERK2 and phosphorylated forms of ERK1/2 (pErk1/2, Thr202/Tyr204), were determined by Western blotting technique. All primary antibodies were purchased from Cell Signaling Technology and used at a dilution recommended by the manufacturer.

[2] = In vitro metabolic stability, rat liver microsomes; assay type: in vitro ADME; conditions: rat liver microsomes and cofactors, 37° C., 0-60 minutes
Description: as §2

rat C6 glioma cells = assay: 3H-Thymidine incorporation in rat C6 glioma cells; assay type: cell-based; conditions: 24 hours
Description: Cell culture. The rat-derived C6 glioma cell line was obtained from the American Type Culture Collection (Manassas, Va.). The cells were routinely maintained in DMEM supplemented with L-glutamine, 1% penicillin/streptomycin solution, and 10% FBS in a humidified CO2 incubator at 37° C.
3H-Thymidine incorporation. C6 glioma cells were seeded in 12-well plates at ˜5×10^4 cells/well and incubated for 24 hours followed by a second 24-hour incubation with various concentrations of MNF. Radiolabeled thymidine (10 Ci/mmol; PerkinElmer Life and Analytical Sciences, Waltham, Mass.) was added at 1 μCi per well for 16 hours and its incorporation into DNA was then measured. Each treatment group was performed in triplicate and three independent studies were carried out.

HepG2 cells = assay: Scratch wound-healing assay, HepG2 cells; assay type: cell-based, human; conditions: HepG2, 1 μM
Description: Scratch assays. These assays were carried out essentially as described previously (Fiori et al., Endocrinology 150: 2551-2560, 2009). In brief, cells were seeded in 12-well nontreated polystyrene cell culture plates with flat bottom (Greiner Bio-One, Monroe, N.C.). Once the cells became confluent, a scratch wound was made with a pipette tip and pictured immediately (time 0). […] Cell migration was examined at 12, 24, 36, 48 hours and 12, 18, 24, 48 hours after scratch for the HepG2 and PANC-1 cells, respectively. Images of the same field were taken every 3 hours to determine the rate of cell migration. Images were captured on an Axiovert 200 inverted microscope (Carl Zeiss, Thornwood, N.Y.) mounted with an AxioCam HRc digital camera (Carl Zeiss) and the measurement of scratch area was performed with ImageJ 1.46s software (National Institutes of Health, Bethesda, Md.). Each study was performed in duplicate dishes and repeated at least twice.

CAPAN = assay: tumor cell growth, CAPAN; conditions: read-out: IC50 (uM), CAPAN (Pancreatic C)

| Compound | effect on O-1602-induced EGFR levels (HepG2 and PANC-1 cells; 1 μM pretreatment) | effect on change in morphology induced by AM251 and O-1602 (HepG2 and PANC-1 cells; 1 μM pretreatment 30 minutes, agonists 5 μM 16 hours) | CYP3A4 activity in presence of test compound (CYP3A4) | T1117 incorporation (GPR55) | stability under the incubation conditions ([1]; heat-inactivated microsome controls) | metabolic stability, MNF levels ([1]; human liver microsomes and cofactors, 0-60 minutes) | effect on O-1602-mediated ERK phosphorylation (ERK1/2; HepG2, 1 μM pretreatment 10 minutes) | effect on serum-induced ERK phosphorylation (ERK1/2; HepG2, 1 μM pretreatment, 10% FBS) | metabolic stability, MNF levels [2] | inhibition of C6 cell growth / reduction in mitogenesis (rat C6 glioma cells; 20 nM) [%] | IC50 (rat C6 glioma cells; then [3H]-thymidine 16 hours, read-out: IC50, growth inhibition of rat C6 glioma cell line) [nM] | cell motility, compound alone (HepG2 cells) | effect on AM251-mediated increase in cell motility (HepG2 cells; AM251 1 μM) | effect on wound closure evoked by O-1602 (HepG2 cells; O-1602 1 μM) | IC50 (CAPAN) [µM] |
| --- | --- | --- | --- | --- | --- | --- | --- | --- | --- | --- | --- | --- | --- | --- | --- |
| COc1ccc(C[C@@H](C)NC[C@H](O)c2cc(O)cc(O)c2)c2ccccc12 [(R,R′)-MNF, (R,R′)-4′-methoxy-1-naphthylfenoterol] | MNF blocked this effect | rendered the cells refractory to the change in morphology induced by AM251 and O-1602 | less than 70 % of the control | potent inhibitor of T1117 incorporation in PANC-1 cells | somewhat unstable under the incubation conditions | greater decrease in MNF levels | abrogated O-1602 responsiveness | potently inhibited serum-induced ERK phosphorylation in both cell lines | greater decrease in MNF levels | 54.3±1.2 | ~1 | had no effect on the motility of HepG2 cells | significant inhibitory effect toward AM251-mediated increase in cell motility | absent in HepG2 cells | – |
| COc1cccc2c1C(=O)c1c(O)c3c(c(O)c1C2=O)C[C@@](O)(C(=O)CO)C[C@@H]3O[C@H]1C[C@H](N)[C@H](O)[C@H](C)O1 [Doxorubicin, reference compound] | – | – | – | – | – | – | – | – | – | – | – | – | – | – | 0.23 |
